Results: patent publication US20240067634A1, “INHIBITORS OF NEF DOWNMODULATION” (priority 2020, published 2024)

Molecular target: V-ATPase-dependent lysosomal acidification
Assay: cells
Format: cell-based, human
Conditions: 24 hr Lysotracker IC50; 1000 nM set as activity threshold (FIG. 11-14); read-out: Lyso IC50
From the text: Determine effect on V-ATPase activity: Plecomacrolides are known inhibitors of V-ATPase that neutralize normally acidified lysosomes. […] Thus, analogs of the disclosure are further characterized by measuring their effects on lysosome acidification.
LysoTracker® is a fluorophore linked to a weak base that is partially protonated at neutral pH. This form of the probe is capable of freely permeating cell membranes of live cells. In acidic compartments, protonation creates a form that was impermeable causing the probe to accumulate inside the lysosome.

| Compound | IC50 |
| --- | --- |
| 19-Deoxy-20-ene Baf A1 | 341 nM |
| 19-Deoxy-21-Methoxy Baf A1 | 49.6 nM |
| 19-Deoxy-21-allylester Baf A1 | 152 nM |
| C#CCCC(=O)O[C@H]1C[C@@H](O[C@@H]2C[C@](O)([C@@H](C)[C@H](O)[C@H](C)[C@H]3OC(=O)/C(OC)=C/C(C)=C/[C@@H](C)[C@@H](O)[C@@H](CC)[C@@H](O)[C@H](C)C/C(C)=C/C=C/[C@@H]3OC)O[C@H](/C=C/C)[C@H]2C)O[C@@H](C)[C@@H]1OC(N)=O [23-Alkyne CMA, 3′-pent-4-ynoate Concanamycins A-C] | 1.1 nM |
| C#CCCC(=O)O[C@H]1C[C@@H](O[C@@H]2C[C@](O)([C@@H](C)[C@H](O)[C@H](C)[C@H]3OC(=O)/C(OC)=C/C(C)=C/[C@@H](C)[C@@H](O)[C@@H](CC)[C@@H](O)[C@H](C)C/C(C)=C/C=C/[C@@H]3OC)O[C@H](/C=C/C)[C@H]2C)O[C@@H](C)[C@@H]1OC(N)=O [23-Alkyne CMC, 3′-pent-4-ynoate Concanamycins A-C] | 5.72 nM |
| C/C=C/[C@H]1O[C@@](O)([C@@H](C)[C@H](O)[C@H](C)[C@H]2OC(=O)/C(OC)=C/C(C)=C/[C@@H](C)[C@@H](O)[C@@H](C)[C@@H](O)[C@H](C)C/C(C)=C/C=C/[C@@H]2OC)C[C@@H](O[C@H]2C[C@@H](O)[C@H](OC(N)=O)[C@@H](C)O2)[C@@H]1C [CMB, Concanamycin B, reference compound] | 29.6 nM |
| C/C=C/[C@H]1O[C@@](O)([C@@H](C)[C@H](O)[C@H](C)[C@H]2OC(=O)/C(OC)=C/C(C)=C/[C@@H](C)[C@@H](O)[C@@H](CC)[C@@H](O)[C@H](C)C/C(C)=C/C=C/[C@@H]2OC)C[C@@H](O[C@H]2C[C@@H](O)[C@H](O)[C@@H](C)O2)[C@@H]1C [CMC, Concanamycin C, reference compound] | 2.72 nM |

Same assay, conditions: Homo sapiens, PBMC, 24 h, 24 hr Lysotracker IC50; 1000 nM set as activity threshold (FIG. 11-14); read-out: Lyso IC50

| Compound | IC50 |
| --- | --- |
| C/C=C/[C@H]1O[C@@H]([C@@H](C)[C@H](O)[C@H](C)[C@H]2OC(=O)/C(O)=C/C(C)=C/[C@@H](C)[C@@H](O)[C@@H](CC)[C@@H](O)[C@H](C)C/C(C)=C/C=C/[C@@H]2OC)C[C@@H](O)[C@@H]1C [2-hydroxy-21-deoxy CMF, 21-deoxy-2-hydroxy-Concanamycin F] | ≥ 1000 nM |
| C#CCCC(=O)O[C@@H]1[C@H](C)/C=C(C)/C=C(\OC)C(=O)O[C@H]([C@@H](C)[C@@H](O)[C@H](C)[C@@]2(O)C[C@@H](OC(=O)c3ccc(C4(C(F)(F)F)N=N4)cc3)[C@H](C)[C@@H](C(C)C)O2)[C@@H](OC)/C=C/C=C(\C)C[C@@H]1C [7 Alkyne 21-Y Bafilomycin Probe, 21-(3-(trifluoromethyl)-3H-diazirin-3-yl)benzoate-7-pent-4-ynoate-Bafilomycin] | ≥ 1000 nM |
| CO/C1=C\C(C)=C\[C@@H](C)[C@@H](O)[C@@H](C)C/C(C)=C/C=C/[C@H](OC)[C@@H]([C@@H](C)[C@@H](O)[C@H](C)[C@H]2C[C@@H](O)[C@H](C)[C@@H](C(C)C)O2)OC1=O [19-Deoxy Baf A1, 19-deoxy Bafilomycin] | 111 nM |
| C#CCCC(=O)O[C@@H]1C[C@H]([C@@H](C)[C@H](O)[C@H](C)[C@H]2OC(=O)/C(OC)=C/C(C)=C/[C@@H](C)[C@@H](O)[C@@H](C)C/C(C)=C/C=C/[C@@H]2OC)OC(C(C)C)[C@H]1C (stereo partly shown) [19-Deoxy-21(4-Pentynoate) Baf A1, 19-deoxy-21-pent-4-ynoate Bafilomycin] | 76.4 nM |
| C#CCCC(=O)O[C@@H]1C[C@](O)([C@@H](C)[C@H](O)[C@H](C)[C@H]2OC(=O)/C(OC)=C/C(C)=C/[C@@H](C)[C@@H](O)[C@@H](C)C/C(C)=C/C=C/[C@@H]2OC)O[C@H](C(C)C)[C@H]1C [21 Alkyne Bafilomycin Probe, 21-pent-4-ynoate Bafilomycin] | 29.1 nM |
| C#CCCC1(CCC(=O)O[C@@H]2C[C@](O)([C@@H](C)[C@H](O)[C@H](C)[C@H]3OC(=O)/C(OC)=C/C(C)=C/[C@@H](C)[C@@H](O)[C@@H](C)C/C(C)=C/C=C/[C@@H]3OC)O[C@H](C(C)C)[C@H]2C)N=N1 [21 Dual Linear Bafilomycin Probe, 21-(3-(3-(but-3-yn-1-yl)-3H-diazirin-3-yl)propanoate) Bafilomycin] | 28.3 nM |
| C/C=C/[C@H]1O[C@@H]([C@@H](C)[C@H](O)[C@H](C)[C@H]2OC(=O)/C(OC)=C/C(C)=C/[C@@H](C)[C@@H](O)[C@@H](CC)[C@@H](O)[C@H](C)C/C(C)=C/C=C/[C@@H]2OC)C[C@@H](O[C@@H]2C[C@H](O)[C@@H](O)[C@H](C)O2)[C@@H]1C [21-Deoxy CMC, 21-deoxy CMC] | 7.04 nM |
| CCCCCCCCC(=O)O[C@@H]1C[C@](O)([C@@H](C)[C@H](O)[C@H](C)[C@H]2OC(=O)/C(OC)=C/C(C)=C/[C@@H](C)[C@@H](O)[C@@H](C)C/C(C)=C/C=C/[C@@H]2OC)O[C@H](C(C)C)[C@H]1C [21-Nonanoate Baf A1, 21-nonanoate Bafilomycin] | 146 nM |
| C/C=C/CC(=O)O[C@@H]1C[C@](O)([C@@H](C)[C@H](O)[C@H](C)[C@H]2OC(=O)/C(OC)=C/C(C)=C/[C@@H](C)[C@@H](O)[C@@H](C)C/C(C)=C/C=C/[C@@H]2OC)O[C@H](C(C)C)[C@H]1C [21-Penta-3-enoate Baf A1, 21-pent-3-enoate Bafilomycin] | 60.2 nM |
| CCCCC(=O)O[C@@H]1C[C@](O)([C@@H](C)[C@H](O)[C@H](C)[C@H]2OC(=O)/C(OC)=C/C(C)=C/[C@@H](C)[C@@H](O)[C@@H](C)C/C(C)=C/C=C/[C@@H]2OC)O[C@H](C(C)C)[C@H]1C [21-Pentanoate Baf A1, 21-pentanone Bafilomycin] | 62.3 nM |
| CO/C1=C\C(C)=C\[C@@H](C)[C@@H](O)[C@@H](C)C/C(C)=C/C=C/[C@H](OC)[C@@H]([C@@H](C)[C@@H](O)[C@H](C)[C@H]2C[C@@H](OC(=O)c3ccc(C4(C(F)(F)F)N=N4)cc3)[C@H](C)[C@@H](C(C)C)O2)OC1=O [21-Y Bafilomycin Probe, 21-(3-(trifluoromethyl)-3H-diazirin-3-yl)benzoate Bafilomycin] | ≥ 1000 nM |
| C=C/C=C/C(=O)O[C@@H]1C[C@](O)([C@@H](C)[C@H](O)[C@H](C)[C@H]2OC(=O)/C(OC)=C/C(C)=C/[C@@H](C)[C@@H](O)[C@@H](C)C/C(C)=C/C=C/[C@@H]2OC)O[C@H](C(C)C)[C@H]1C [21-penta-2,4-dienoate Baf A1, 21-penta-2,4-dienoate Bafilomycin] | 25.1 nM |
| C#CCCC(=O)O[C@H]1C[C@@H](O[C@@H]2C[C@](O)([C@@H](C)[C@H](O)[C@H](C)[C@H]3OC(=O)/C(OC)=C/C(C)=C/[C@@H](C)[C@@H](O)[C@@H](C)[C@@H](O)[C@H](C)C/C(C)=C/C=C/[C@@H]3OC)O[C@H](/C=C/C)[C@H]2C)O[C@@H](C)[C@@H]1OC(N)=O [23-Alkyne CMB, 3′-pent-4-ynoate Concanamycins A-C] | 5.75 nM |
| C#CCCC1(CCC(=O)O[C@H]2C[C@@H](O[C@@H]3C[C@](O)([C@@H](C)[C@H](O)[C@H](C)[C@H]4OC(=O)/C(OC)=C/C(C)=C/[C@@H](C)[C@@H](O)[C@@H](C)[C@@H](O)[C@H](C)C/C(C)=C/C=C/[C@@H]4OC)O[C@H](/C=C/C)[C@H]3C)O[C@@H](C)[C@@H]2OC(N)=O)N=N1 [23-Dual Linear Probe CMB, 3′-(3-(3-(but-3-yn-1-yl)-3H-diazirin-3-yl)propanoate) Concanamycin B] | 23.2 nM |
| C#CCCC1(CCC(=O)O[C@H]2C[C@@H](O[C@@H]3C[C@](O)([C@@H](C)[C@H](O)[C@H](C)[C@H]4OC(=O)/C(OC)=C/C(C)=C/[C@@H](C)[C@@H](O)[C@@H](CC)[C@@H](O)[C@H](C)C/C(C)=C/C=C/[C@@H]4OC)O[C@H](/C=C/C)[C@H]3C)O[C@@H](C)[C@@H]2OC(N)=O)N=N1 [23-Dual Linear Probe CMC, 3′-(3-(3-(but-3-yn-1-yl)-3H-diazirin-3-yl)propanoate) Concanamycin C] | 4.7 nM |
| CO/C1=C\C(C)=C\[C@@H](C)[C@@H](O)[C@@H](C)C/C(C)=C/C=C/[C@H](OC)[C@@H]([C@@H](C)[C@@H](O)[C@H](C)[C@@]2(OC)C[C@@H](O)[C@H](C)[C@@H](C(C)C)O2)OC1=O [BafA2, Bafilomycin A2] | 25.3 nM |
| C#CCCC1(CCC(=O)O[C@H]2C[C@@H](O[C@@H]3C[C@](O)([C@@H](C)[C@H](O)[C@H](C)[C@H]4OC(=O)/C(OC)=C/C(C)=C/[C@@H](C)[C@@H](O)[C@@H](CC)[C@@H](O)[C@H](C)C/C(C)=C/C=C/[C@@H]4OC)O[C@H](/C=C/C)[C@H]3C)O[C@@H](C)[C@@H]2O)N=N1 [Dual Linear Probe CMA, 3′-(3-(3-(but-3-yn-1-yl)-3H-diazirin-3-yl)propanoate) Concanamycin A] | 4.87 nM |

Same assay, conditions: Homo sapiens, PBMC, 24 h; read-out: Lyso IC50

| Compound | IC50 |
| --- | --- |
| CO/C1=C\C(C)=C\[C@@H](C)C(=O)[C@@H](C)C/C(C)=C/C=C/[C@H](OC)[C@@H]([C@@H](C)[C@@H](O)[C@H](C)[C@@]2(O)CC(=O)[C@H](C)[C@@H](C(C)C)O2)OC1=O [7,21-Dione Baf A1, 7,21-dione Bafilomycin] | ≥ 1000 nM |
| CO/C1=C\C(C)=C\[C@@H](C)C(=O)[C@@H](C)C/C(C)=C/C=C/[C@H](OC)[C@@H]([C@@H](C)[C@@H](O)[C@H](C)[C@@]2(O)C[C@@H](O)[C@H](C)[C@@H](C(C)C)O2)OC1=O [7-One Baf A1, 7-one Bafilomycin] | ≥ 1000 nM |
| CO/C1=C\C(C)=C\[C@@H](C)[C@@H](O)[C@@H](C)C/C(C)=C/C=C/[C@H](OC)[C@@H]([C@@H](C)[C@@H](O)[C@H](C)[C@@]2(O)C[C@@H](OC(C)=O)[C@H](C)[C@@H](C(C)C)O2)OC1=O [21-Acetyl Baf, 21-Acetyl Bafilomycin] | 22.7 nM |
| C/C=C/[C@H]1O[C@@](O)([C@@H](C)[C@H](O)[C@H](C)[C@H]2OC(=O)/C(OC)=C/C(C)=C/[C@@H](C)[C@@H](O)[C@@H](CC)[C@@H](O)[C@H](C)C/C(C)=C/C=C/[C@@H]2OC)C[C@@H](O)[C@@H]1C [CMF, Concanamycin F] | 6.27 nM |
